Results reported in article PMC11852993, “Discovery of small molecules against porcine reproductive and respiratory syndrome virus replication by targeting NendoU activity” (Journal of Virology, 2024).
Read-outs that look alike come from different tables or passages of the source.

Tests used:
[1] = molecular target: T1, VR-NSP11 (PRRSV VR2332, UniProt Q9WJB2); assay: microscale thermophoresis; type: binding
T1 construct: gene rep; mature NSP11 cut from replicase polyprotein 1ab (ORF1b part); N-terminal 6xHN tag (pET6xHN-N), expressed in E. coli BL21(DE3), TALON purified
Source text: microscale thermophoresis on VR-NSP11 | The MST analysis confirmed a direct interaction between VR-NSP11 and both compounds

[2] = molecular target: T1, VR-NSP11; assay: FRET NendoU assay (6-FAM/BHQ-1 RNA R23.[…]); type: biochemical

T1 sequence (Q9WJB2 3585-3807): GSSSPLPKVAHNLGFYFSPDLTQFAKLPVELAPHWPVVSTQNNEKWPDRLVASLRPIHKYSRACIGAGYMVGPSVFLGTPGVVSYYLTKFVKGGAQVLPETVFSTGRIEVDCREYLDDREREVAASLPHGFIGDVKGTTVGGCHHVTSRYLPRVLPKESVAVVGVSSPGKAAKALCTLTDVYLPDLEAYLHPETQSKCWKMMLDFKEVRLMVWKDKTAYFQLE

| Compound | Kd [1] | IC50 ([2]; read-out: IC50) | IC50 ([2]; fluorescence at 2 h, 1 µM R23.1, HEPES pH 7.5, 50 mM KCl, 1 mM DTT, 25 °C, 1.2 µM enzyme) |
| --- | --- | --- | --- |
| CCc1c(C)nc(Nc2nc(C)c3ccc(OC)cc3n2)nc1O [A8-A2] | 23 µM | 24.6 µM |  |
| COc1ccc2c(C)nc(Nc3nc(C)c(C)c(=O)[nH]3)nc2c1 [Madrasin] |  |  | these IC50 values are higher than those of C5 and Madrasin |
